Publication PMC10581193 (Microbiology Spectrum, 2023)
Where two headings read alike, the source gives them in different places.

Legend:
Y198 = type: cell-based, M. tuberculosis
DprE1 = DprE1 (Mycobacterium tuberculosis, UniProt P9WJF1, Y314H); parameters: species or system M. tuberculosis H37Ra
Y48 = type: cell-based, M. tuberculosis
Y17 = type: cell-based, M. tuberculosis

CO[C@H]1/C=C/O[C@@]2(C)Oc3c(C)c(O)c4c(O)c(c(/C=N/N5CCN(C6CCCC6)CC5)c(O)c4c3C2=O)NC(=O)/C(C)=C\C=C\[C@H](C)[C@H](O)[C@@H](C)[C@@H](O)[C@@H](C)[C@H](OC(C)=O)[C@@H]1C [RFT, rifapentine]
Drug resistance of clinical isolate (Y198; strain Y198): R

[H]/N=C(/N)N[C@H]1[C@H](O)[C@@H](O)[C@H](O[C@@H]2O[C@@H](C)[C@](O)(C=O)[C@H]2O[C@@H]2O[C@@H](CO)[C@H](O)[C@@H](O)[C@@H]2NC)[C@@H](N/C(N)=N\[H])[C@@H]1O [SM, streptomycin]
Drug resistance of clinical isolate (Y198; strain Y198): R

COc1ncnc(Cn2cc(C(=O)NCCO)c3ncc(C)cc32)c1C [TBA-7371, reference compound]
Amino-acid substitution (DprE1): Tyr→His

CO[C@H]1/C=C/O[C@@]2(C)Oc3c(C)c(O)c4c(O)c(c(/C=N/N5CCN(C)CC5)c(O)c4c3C2=O)NC(=O)/C(C)=C\C=C\[C@H](C)[C@H](O)[C@@H](C)[C@@H](O)[C@@H](C)[C@H](OC(C)=O)[C@@H]1C [RMP, rifampicin]
Drug resistance of clinical isolate (Y48): R | Drug resistance of clinical isolate (Y198): R | Drug resistance of clinical isolate (Y17): R

Cc1nc(C)c(CN2CCOc3c(C(=O)NCC(F)(F)F)cc(C4CC4)cc32)nc1C [B18, 6-cyclopropyl-N-(2,2,2-trifluoroethyl)-4-((3,5,6-trimethylpyrazin-2-yl)methyl)-3,4-dihydro-2H-benzo[b][1,4]oxazine-8-carboxamide]
Amino-acid substitution (DprE1): Tyr→His

CC[C@@H](CO)NCCN[C@@H](CC)CO [EMB, ethambutol]
Drug resistance of clinical isolate (Y48; strain Y48): R | Drug resistance of clinical isolate (Y198; strain Y198): R

NC(=O)c1cnccn1 [PZA, pyrazinamide]
Drug resistance of clinical isolate (Y198; strain Y198): R

CO[C@H]1/C=C/O[C@@]2(C)Oc3c(C)c(O)c4c(c3C2=O)C2=NC3(CCN(CC(C)C)CC3)NC2=C(NC(=O)/C(C)=C\C=C\[C@H](C)[C@H](O)[C@@H](C)[C@@H](O)[C@@H](C)[C@H](OC(C)=O)[C@@H]1C)C4=O [RFB, rifabutin]
Drug resistance of clinical isolate (Y198; strain Y198): R

Nc1ccc(C(=O)O)c(O)c1 [PA, p-aminosalicylic acid]
Drug resistance of clinical isolate (Y48; strain Y48): S | Drug resistance of clinical isolate (Y198; strain Y198): R

NNC(=O)c1ccncc1 [INH, isoniazid]
Drug resistance of clinical isolate (Y48; strain Y48): R | Drug resistance of clinical isolate (Y198; strain Y198): R | Drug resistance of clinical isolate (Y17; strain Y17): R
